Experimental data taken from patent US8080546B2, “Pyrazolo-pyridinone derivatives and methods of use” (Amgen Inc., priority 2007, dated 2011).
Read-outs that look alike come from different tables or passages of the source.

Key:
THP1 cells = assay: Lipopolysaccharide-activated THP1 cell TNF production assay (THP1 cell based); details: Homo sapiens, THP-1, LPS-induced TNF-α
Procedure: Lipopolysaccharide-Activated THP1 Cell TNF Production Assay
THP1 cells are resuspended in fresh THP1 media (RPMI 1640, 10% heat-inactivated FBS, 1XPGS, 1XNEAA, plus 30 μM PME) at a concentration of 1E6/mL. One hundred microliters of cells per well are plated in a polystyrene 96-well tissue culture. One microgram per mL of bacterial LPS is prepared in THP1 media and is transferred to the wells. Test compounds are dissolved in 100% DMSO and are serially diluted 3-fold in a polypropylene 96-well microtiter plate (drug plate). HI control and LO control wells contain only DMSO. One microliter of test compound from the drug plate followed by 10 μL of LPS are transferred to the cell plate. The treated cells are induced to synthesize and secrete TNF-α at 37° C. for 3 h. Forty microliters of conditioned media are transferred to a 96-well polypropylene plate containing 110 μL of ECL buffer (50 mM Tris-HCl pH 8.0, 100 mM NaCl, 0.05% Tween 20, 0.05% NaN3 and 1% FBS) supplemented with 0.44 nM MAB610 monoclonal Ab (R&D Systems), 0.34 nM ruthenylated AF210NA polyclonal Ab (R&D Systems) and 44 μg/mL sheep anti-mouse M280 Dynabeads (Dynal). After a 2 h incubation at room temperature with shaking, the reaction is read on the ECL M8 Instrument (IGEN Inc.). A low voltage is applied to the ruthenylated TNF-α immune complexes, which in the presence of TPA (the active component in Origlo), results in a cyclical redox reaction generating light at […]. The amount of secreted TNF-α in the presence of compound compared with that in the presence of DMSO vehicle alone (HI control) is calculated using the formula: % control (POC)=(cpd−average LO)/(average HI−average LO)*100. Data (consisting of POC and inhibitor concentration in μM) is fitted to a 4-parameter equation (y=A+((B−A)/(1+((x/C)^D))), where A is the minimum y (POC) value, B is the maximum y (POC), C is the x (cpd concentration) at the point of inflection and D is the slope factor) using a Levenburg-Marquardt non-linear regression algorithm.

p38 = p38 (Homo sapiens, UniProt Q16539); assay: p38 in-vitro HTRF enzyme assay; format: biochemical; details: recombinant human enzyme, read-out: p38 enyme HTRF assay IC50
Procedure: p38 In-Vitro HTRF Enzyme Assay
The compounds of the invention can be tested for their respective affinities for the p38 protein using a conventional p38 in-vitro enzyme activity assay. For example, a P38-alpha HTRF assay may be used to measure the protein's in-vitro phosphorylation activity, and the data analyzed using time resolved fluorimetry techniques (FRET). A p38 HTRF assay is as follows. The kinase reaction buffer for p38α, p38β, p38δ and p38γ HTRF assays consists of 50 mM Tris-pH 7.5, 5 mM MgCl2, 0.1 mg/mL BSA, 100 μM Na3VO4 and 0.5 mM DTT. The HTRF detection buffer contains 100 mM HEPES-pH 7.5, 100 mM NaCl, 0.1% BSA, 0.05% Tween-20, and 10 mM EDTA. Each compound was dissolved in 100% DMSO and serially diluted (3 fold, 10 point) in a polypropylene 96-well microtiter plate (drug plate). The final starting concentration of the compound in the p38α and p38β enzymatic assays was about 1 μM. The final starting concentration of each compound in the p38δ and p38γ enzymatic assays was about 10 μM. The p38α, p38β, p38δ and p38γ kinase reactions were carried out in a polypropylene 96-well black round bottom assay plate in total volume of 30 μL kinase reaction buffer. Appropriate concentration of purified and activated enzyme (recombinant human) was mixed with indicated concentration of ATP and 100 nM GST-ATF2-Avitag, in the presence or absence (HI control) of each compound. In the absence of enzyme, the background was measured as LO control. HI controls and LO controls contained only DMSO. The reaction was allowed to incubate for 1 hour at RT. […] After 60 minutes incubation at room temperature, the assay plate was read in a Discovery Plate Reader. […] The resulting data was analyzed by taking the proportion of substrate phosphorylated in the kinase reaction in the presence of each individual compound and comparing it with that phosphorylated in the presence of DMSO vehicle alone (HI control). The data was calculated using the formula: % control (POC)=(compound−average LO)/(average HI−average LO)*100. […] All results were expressed as the mean±the standard error of the mean. Data acquisition and non-linear regression algorithms were performed using Activity Base v5.2 and XLfit software v4.1 respectively. Additional assay information may be obtained in Park Y W, Cummings R T, Wu L, et al. Homogeneous Proximity Tyrosine Kinase Assays Scintillation Proximity Assay versus Homogeneous Time-Resolved Fluorescence. Analytical Biochemistry.

IL-1 = assay: LPS induced IL-1 cell based assay (LPS-activated monocytes); details: Homo sapiens, Monocyte
Procedure: Lipopolysaccharide-Activated Monocyte TNF Production Assay
Test compounds were evaluated in vitro for the ability to inhibit the production of TNF by monocytes activated with bacterial lipopolysaccharide (LPS). Fresh residual source leukocytes (a byproduct of plateletpheresis) were obtained from a local blood bank, and peripheral blood mononuclear cells (PBMCs) were isolated by density gradient centrifugation on Ficol-Paque Plus (Pharmacia). PBMCs were suspended at 2×10^6/mL in DMEM supplemented to contain 2% FCS, 10 mM, 0.3 mg/mL […], 100 U/mL penicillin G and […] streptomycin sulfate (complete media). Cells were plated into Falcon flat bottom, 96 well culture plates (200 μL/well) and cultured overnight at 37° C. and 6% CO2. Non-adherent cells were removed by washing with 200 μl/well of fresh medium. Wells containing adherent cells (˜70% monocytes) were replenished with 100 μL of fresh medium.
Preparation of Test Compound Stock Solutions
Test compounds were dissolved in […]. Compound stock solutions were prepared to an initial concentration of […]. Stocks were diluted initially to 20-200 μM in complete media. Nine two-fold serial dilutions of each compound were then prepared in complete medium.
Treatment of Cells with Test Compounds and Activation of TNF Production with Lipopolysaccharide
One hundred microliters of each test compound dilution were added to microtiter wells containing adherent monocytes and 100 μL complete medium. Monocytes were cultured with test compounds for 60 min at which time 25 μL of complete medium containing 30 ng/mL lipopolysaccharide from E. coli K532 were added to each well. Cells were cultured an additional 4 hrs. Culture supernatants were then removed and TNF presence in the supernatants was quantified using an ELISA. […]
Standard curve data were fit to a second order polynomial and unknown TNF-α concentrations determined from their OD by solving this equation for concentration. TNF concentrations were then plotted vs. test compound concentration using a second order polynomial. This equation was then used to calculate the concentration of test compounds causing a 50% reduction in TNF production.
Compounds of the invention can also be shown to inhibit LPS-induced release of IL-1β, IL-6 and/or IL-8 from monocytes by measuring concentrations of IL-1β, IL-6 and/or IL-8 by methods well known to those skilled in the art. […] Thus, the compounds of the invention may lower elevated levels of TNF-α, IL-1, IL-6, and IL-8 levels. Reducing elevated levels of these inflammatory cytokines to basal levels or below is favorable in controlling, slowing progression, and alleviating many disease states.

Chain of p38 (Q16539 whole entry): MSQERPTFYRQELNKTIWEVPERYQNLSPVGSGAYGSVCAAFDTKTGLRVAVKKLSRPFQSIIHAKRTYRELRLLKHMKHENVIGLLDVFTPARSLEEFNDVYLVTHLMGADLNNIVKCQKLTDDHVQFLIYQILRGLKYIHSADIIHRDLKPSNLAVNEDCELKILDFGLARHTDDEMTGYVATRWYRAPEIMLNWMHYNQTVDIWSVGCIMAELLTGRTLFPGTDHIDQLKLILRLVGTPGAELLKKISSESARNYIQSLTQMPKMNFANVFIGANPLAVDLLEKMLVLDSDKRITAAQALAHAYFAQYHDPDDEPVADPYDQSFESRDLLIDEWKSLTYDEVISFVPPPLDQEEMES

Row | SMILES | IC50 (THP1 cells; range symbols) [µM] | IC50 (p38; range symbols) [µM] | IC50 (IL-1; range symbols) [µM] | IC50 (THP1 cells; actual values) [µM] | IC50 (p38; actual values) [µM] | IC50 (IL-1; actual values) [µM]
1 | Cc1ccc(C(=O)O)cc1Nc1cc(=O)n(C)c2c1cnn2-c1ccc(F)cc1F [Example 17, 3-((1-(2,4-difluorophenyl)-7-methyl-6-oxo-6,7-dihydro-1H-pyrazolo[3,4-b]pyridin-4-yl)amino)-4-methylbenzoic acid] | 1 to 5 | 1 to 5 | 1 to 5 | – | – | –
2 | Cc1ccc(C(N)=O)cc1Nc1cc(=O)n(C)c2c1cnn2-c1ccc(F)cc1F [Example 18, 3-((1-(2,4-difluorophenyl)-7-methyl-6-oxo-6,7-dihydro-1H-pyrazolo[3,4-b]pyridin-4-yl)amino)-4-methylbenzamide] | < 0.025 | < 0.025 | < 0.025 | – | – | –
3 | Cc1ccc(C(=O)NC2CC2)cc1Oc1cc(=O)n(C)c2c1cnn2-c1ccc(F)cc1F [Example 19, N-cyclopropyl-3-((1-(2,4-difluorophenyl)-7-methyl-6-oxo-6,7-dihydro-1H-pyrazolo[3,4-b]pyridin-4-yl)oxy)-4-methylbenzamide] | < 0.025 | < 0.025 | 0.025 to 0.099 | – | – | –
4 | Cc1ccc(C(=O)NC2CC2)cc1Nc1cc(=O)n(C)c2c1cnn2-c1cc(F)ccc1F [Example 20, N-cyclopropyl-3-((1-(2,5-difluorophenyl)-7-methyl-6-oxo-6,7-dihydro-1H-pyrazolo[3,4-b]pyridin-4-yl)amino)-4-methylbenzamide] | < 0.025 | < 0.025 | < 0.025 | – | – | –
5 | Cc1ccc(C(N)=O)cc1Nc1cc(=O)n(C)c2c1cnn2-c1cc(F)ccc1F [Example 21, 3-((1-(2,5-difluorophenyl)-7-methyl-6-oxo-6,7-dihydro-1H-pyrazolo[3,4-b]pyridin-4-yl)amino)-4-methylbenzamide] | < 0.025 | < 0.025 | 0.025 to 0.099 | – | – | –
6 | Cc1ccc(C(=O)NC2CC2)cc1Oc1cc(=O)n(C)c2c1cnn2-c1cc(F)ccc1F [Example 22, N-cyclopropyl-3-((1-(2,5-difluorophenyl)-7-methyl-6-oxo-6,7-dihydro-1H-pyrazolo[3,4-b]pyridin-4-yl)oxy)-4-methylbenzamide] | < 0.025 | < 0.025 | 0.1 to 0.249 | – | – | –
7 | CCn1c(=O)cc(Nc2cc(C(=O)NC3CC3)ccc2C)c2cnn(-c3ccc(F)cc3)c21 [Example 23, N-cyclopropyl-3-((7-ethyl-1-(4-fluorophenyl)-6-oxo-6,7-dihydro-1H-pyrazolo[3,4-b]pyridin-4-yl)amino)-4-methylbenzamide] | < 0.025 | < 0.025 | < 0.025 | – | – | –
8 | CCn1c(=O)cc(Oc2cc(C(=O)NC3CC3)ccc2C)c2cnn(-c3ccc(F)cc3)c21 [Example 24, N-cyclopropyl-3-((7-ethyl-1-(4-fluorophenyl)-6-oxo-6,7-dihydro-1H-pyrazolo[3,4-b]pyridin-4-yl)oxy)-4-methylbenzamide] | < 0.025 | < 0.025 | 0.025 to 0.099 | – | – | –

Now from value to molecule:

Row | IC50 (THP1 cells; range symbols) [µM] | IC50 (p38; range symbols) [µM] | IC50 (IL-1; range symbols) [µM] | IC50 (THP1 cells; actual values) [µM] | IC50 (p38; actual values) [µM] | IC50 (IL-1; actual values) [µM] | SMILES
9 | – | – | – | 0.0004 | 0.0012 | 0.0033 | CCn1c(=O)cc(Nc2cc(C(=O)NC3CC3)ccc2Cl)c2cnn(-c3ccc(F)cc3F)c21 [Example 27, 4-chloro-N-cyclopropyl-3-((1-(2,4-difluorophenyl)-7-ethyl-6-oxo-6,7-dihydro-1H-pyrazolo[3,4-b]pyridin-4-yl)amino)benzamide]
10 | – | – | – | 0.0008 | 0.0021 | 0.0042 | Cn1c(=O)cc(Nc2cc(C(=O)NC3CC3)ccc2Cl)c2cnn(-c3ccc(F)cc3)c21 [Example 28, 4-chloro-N-cyclopropyl-3-((1-(4-fluorophenyl)-7-methyl-6-oxo-6,7-dihydro-1H-pyrazolo[3,4-b]pyridin-4-yl)amino)benzamide]
11 | – | – | – | 0.0014 | 0.0017 | 0.0036 | CCn1c(=O)cc(Nc2cc(C(=O)NC3CC3)ccc2Cl)c2cnn(-c3ccc(F)cc3)c21 [Example 29, 4-chloro-N-cyclopropyl-3-((7-ethyl-1-(4-fluorophenyl)-6-oxo-6,7-dihydro-1H-pyrazolo[3,4-b]pyridin-4-yl)amino)benzamide]
12 | – | – | – | 0.0006 | 0.0016 | 0.0038 | CONC(=O)c1ccc(C)c(Nc2cc(=O)n(C)c3c2cnn3-c2ccc(F)cc2F)c1 [Example 30, 3-((1-(2,4-difluorophenyl)-7-methyl-6-oxo-6,7-dihydro-1H-pyrazolo[3,4-b]pyridin-4-yl)amino)-N-methoxy-4-methylbenzamide]
